Assay results: paper PMC10746280, “Bacterial efflux pump modulators prevent bacterial growth in macrophages and under broth conditions that mimic the host environment” (mBio, 2023)

Experiments:
S. Typhimurium = experiment: Bacterial growth (OD600, CFU/mL) in LPM medium; assay type: cell-based
Excerpt: (§1) LPM 5.5 is chemically defined, contains low phosphate and low magnesium, and is buffered to pH 5.5 ([34], [39][–][41]). […] It was further noted that mutant strains lacking acrAB or tolC grow poorly in LPM 5.5 compared to the corresponding wild type (Fig. 5C through F).
(§2) Fig 5 In LPM pH 5.5, acrAB and tolC are required for growth, and EPM analogs inhibit growth. (A and B) Optical density at 600 nm (OD600) and CFU per milliliter of S. Typhimurium in LPM 5.5 (at pH 5.5) or LPM 7 (at pH 7.0) in the presence of CU032. (C through F) OD600 in LPM 5.5 of (C and E) S. Typhimurium ΔacrAB mutant and wild-type strains, and (D and F) E. coli ΔtolC mutant and wild-type strains with (C, D) CU032 or (E and F) EPM35. Mean and SEM of three biological replicates are shown for A–F. The wild-type and mutant strain controls are the same for C and E and for D and F.
Bacteria were grown in LB at 37°C ([76], [77]), unless otherwise stated. Cation-adjusted MHB was purchased from Sigma-Aldrich (90922). LPM 5.5 medium was made according to the following recipe: 5 mM KCl, 7.5 mM (NH4)2SO4, 0.5 mM K2SO4, 10 mM glucose, 49 µM MgCl2, 337 µM PO4-, 0.05% casamino acids (CAS)-amino acids, 80 mM MES, adjusted to pH to 5.5 with 5 M NaOH, and sterile filtered. Where stated, bacteria were grown with antibiotics: 30 µg/mL streptomycin.

[1] = system: S. enterica (SL1344 and SA10801); experiment: Growth/checkerboard in cation-adjusted Mueller Hinton Broth; assay type: cell-based; settings: MHB
Protocol: as §1
Overnight cation-adjusted MHB-grown cultures of SL1344 or SA10801 were diluted in MHB or LPM 5.5 to an optical density at 600 nm (OD600) of 0.01 and distributed into polystyrene 96-well flat-bottom plates. EPM analogs were added at concentrations up to 300 µM, near the limit of solubility. The antibiotics ciprofloxacin, doxycycline, and erythromycin were added up to concentrations of 2 µM, 2 µM, and 8 µM, respectively. The final DMSO concentration was at or below 2% in all wells. Plates were grown at 37°C with shaking for 18 h and OD600 was monitored (BioTek Synergy H1, BioTek Eon). Each experiment was performed with biological triplicate or higher as indicated. Percent growth was determined by normalizing to OD600 reads in wells containing no D66 or antibiotic. Checkerboards in LPM 5.5 medium were performed with culture grown overnight in LB and diluted to an OD600 of 0.01 in LPM 5.5 and compounds/antibiotics were added as previously described. MuSyC analysis was pursued as previously described ([44], [45]). […]

[2] = system: S. Typhimurium ΔacrAB mutant; experiment: Growth (OD600) of ΔacrAB mutant in LPM 5.5; assay type: cell-based
Excerpt: as §1, §2

E. coli ΔtolC mutant = experiment: Growth (OD600) of ΔtolC mutant in LPM 5.5; assay type: cell-based
Excerpt: as §1, §2

E. coli AcrB = target: T1, E. coli AcrB (Escherichia coli, UniProt P31224); set-up: method as in PMID 29879224; settings: ITC; previously reported; cited from earlier work
T1 construct: 4xHis (C); made in house; host or cells: E. coli BL21-Gold (DE3), plasmid derived from pSPORT1
T1 sequence (P31224 whole entry): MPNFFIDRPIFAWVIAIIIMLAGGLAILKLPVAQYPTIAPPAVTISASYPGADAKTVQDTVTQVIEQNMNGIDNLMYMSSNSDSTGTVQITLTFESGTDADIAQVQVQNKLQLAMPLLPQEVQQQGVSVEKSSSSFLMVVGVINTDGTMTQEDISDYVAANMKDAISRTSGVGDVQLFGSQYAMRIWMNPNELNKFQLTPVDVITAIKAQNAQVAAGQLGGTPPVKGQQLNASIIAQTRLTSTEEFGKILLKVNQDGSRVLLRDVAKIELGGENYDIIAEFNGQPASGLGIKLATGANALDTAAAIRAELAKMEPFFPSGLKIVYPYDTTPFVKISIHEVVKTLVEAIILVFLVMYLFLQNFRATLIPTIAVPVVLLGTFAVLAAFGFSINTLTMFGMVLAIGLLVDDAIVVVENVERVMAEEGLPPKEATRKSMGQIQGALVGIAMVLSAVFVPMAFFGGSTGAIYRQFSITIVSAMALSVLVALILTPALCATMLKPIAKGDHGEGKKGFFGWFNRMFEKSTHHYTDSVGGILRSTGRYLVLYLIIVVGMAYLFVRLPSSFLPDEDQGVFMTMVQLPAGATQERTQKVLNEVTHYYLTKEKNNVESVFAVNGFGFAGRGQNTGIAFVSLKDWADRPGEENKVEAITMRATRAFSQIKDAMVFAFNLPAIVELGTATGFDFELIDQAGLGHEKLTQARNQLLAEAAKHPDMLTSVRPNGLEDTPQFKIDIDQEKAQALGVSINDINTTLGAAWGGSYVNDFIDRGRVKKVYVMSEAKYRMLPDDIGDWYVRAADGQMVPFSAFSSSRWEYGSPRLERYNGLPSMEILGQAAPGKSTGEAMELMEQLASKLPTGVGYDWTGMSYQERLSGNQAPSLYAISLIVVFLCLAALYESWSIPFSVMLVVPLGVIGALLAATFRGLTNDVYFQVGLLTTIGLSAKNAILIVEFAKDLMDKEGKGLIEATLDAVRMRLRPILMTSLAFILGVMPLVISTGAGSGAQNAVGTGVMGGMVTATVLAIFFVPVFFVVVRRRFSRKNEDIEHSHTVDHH

Row | Structure (SMILES) | nature of inhibitory activity (CFU per milliliter) (S. Typhimurium; LPM 5.5) | growth inhibition in LPM 5.5 (S. Typhimurium; pH 5.5) | growth inhibitory activity in LPM at pH 7.0 (S. Typhimurium; pH 7.0) | growth inhibition of wild-type bacteria in Mueller Hinton Broth [1] | growth inhibition of ΔacrAB mutant compared to DMSO [2] | growth inhibition of ΔtolC mutant compared to DMSO (E. coli ΔtolC mutant) | KD (E. coli AcrB) | ∆H (E. coli AcrB) | ∆S (E. coli AcrB)
1 | NC1CCN(CC(O)COc2ccc(Cl)c(Cl)c2)C1 (centres unmarked) [CU032] | bacteriostatic, not bactericidal | prevented bacterial growth | abolished | did not inhibit the growth | does not strongly inhibit growth | does not strongly inhibit growth | – | – | –
2 | OC(COc1ccc(Cl)c(Cl)c1)CN1CCC(Nc2nccc(C(F)(F)F)n2)CC1 (centres unmarked) [EPM35] | – | – | – | – | does not strongly inhibit growth | does not strongly inhibit growth | sub-micromolar range | −7,663 ± 84 cal/mol | 4.2 cal/(mol deg)
